Assay results published in the supplement of paper PMC10307832.

Columns and labels:
Assay in all cases: relative viability (nuclei count vs DMSO), 5 days (fraction); higher = more cells survive
[1] = tested on: HCC-827
In short: (§1)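 Relative viability divides the nuclei count in treated wells by that in vehicle wells. Lung cancer cell lines were seeded in 1536-well plates, dosed by pin tool the next day, and fixed and stained after 5 days in one step with final 0.05% Triton X-100, 1% formaldehyde and 1 ug/ml Hoechst. Dosing was a single drug or a fixed anchor-drug dose plus five library-drug doses (not always all listed) in √10 steps, and values are medians of duplicate plates imaged at 4×.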

[2] = tested on: EMC-BAC-2
In short: as §1

[3] = tested on: NCI-H1755
In short: as §1

[4] = tested on: LCLC-97TM1
In short: as §1

[5] = tested on: NCI-H661
In short: as §1

[6] = tested on: NCI-H1355
In short: as §1

[7] = tested on: HCC-15
In short: as §1

[8] = tested on: NCI-H1792
In short: as §1

[9] = tested on: RERF-LC-KJ
In short: as §1

[10] = tested on: NCI-H1915
In short: as §1

[11] = tested on: UMC-11
In short: as §1

[12] = tested on: NCI-H838
In short: as §1

[13] = tested on: COR-L23
In short: as §1

[14] = tested on: NCI-H520
In short: as §1

[15] = tested on: HARA
In short: as §1

[16] = tested on: NCI-H3122
In short: as §1

[17] = tested on: SW 1573
In short: as §1

[18] = tested on: LC-2-ad
In short: as §1

[19] = tested on: NCI-H2126
In short: as §1

[20] = tested on: EKVX
In short: as §1

[21] = tested on: H3255
In short: as §1

[22] = tested on: NCI-H2405
In short: as §1

[23] = tested on: NCI-H23
In short: as §1

Work on `Nc1cccc2c1CN(C1CCC(=O)NC1=O)C2=O` (stereo not given) [Lenalidomide] + C[C@]1(O)C[C@@H](c2nc(-c3ccc4ccc(-c5ccccc5)nc4c3)c3c(N)nccn32)C1 [Linsitinib] (partner 1 µM) yielded a relative viability ([1]; first compound 0.253 µM) of 0.939, a relative viability ([1]; first compound 0.8 µM) of 0.944 and a relative viability ([1]; first compound 2.53 µM) of 0.995. The relative viability ([1]; first compound 8 µM) was 1.07, the relative viability ([2]; first compound 0.253 µM) was 0.786 and the relative viability ([2]; first compound 0.8 µM) was 0.833. It also gave a relative viability ([2]; first compound 2.53 µM) of 0.823, a relative viability ([2]; first compound 8 µM) of 0.693 and a relative viability ([3]; first compound 0.253 µM) of 0.968. The relative viability ([3]; first compound 0.8 µM) was 1.01, the relative viability ([3]; first compound 2.53 µM) was 0.983 and the relative viability ([3]; first compound 8 µM) was 0.897. The relative viability ([4]; first compound 0.8 µM) was 0.218, the relative viability ([4]; first compound 2.53 µM) was 0.157 and the relative viability ([4]; first compound 8 µM) was 0.137. For the same compound, the relative viability ([5]; first compound 0.253 µM) was 0.451, the relative viability ([5]; first compound 0.8 µM) was 0.526 and the relative viability ([5]; first compound 2.53 µM) was 0.59. It also gave a relative viability ([5]; first compound 8 µM) of 0.539, a relative viability ([6]; first compound 0.253 µM) of 0.827 and a relative viability ([6]; first compound 0.8 µM) of 0.748. For the same compound, the relative viability ([6]; first compound 2.53 µM) was 0.864, the relative viability ([6]; first compound 8 µM) was 0.53 and the relative viability ([7]; first compound 0.253 µM) was 0.91. The relative viability ([7]; first compound 2.53 µM) was 0.975, the relative viability ([7]; first compound 8 µM) was 0.895 and the relative viability ([8]; first compound 0.253 µM) was 0.53. The relative viability ([8]; first compound 0.8 µM) was 0.457, the relative viability ([8]; first compound 2.53 µM) was 0.509 and the relative viability ([8]; first compound 8 µM) was 0.402. For the same compound, the relative viability ([9]; first compound 0.253 µM) was 0.905, the relative viability ([9]; first compound 0.8 µM) was 0.79 and the relative viability ([9]; first compound 2.53 µM) was 0.892. The relative viability ([9]; first compound 8 µM) was 0.943, the relative viability ([10]; first compound 0.253 µM) was 1.08 and the relative viability ([10]; first compound 0.8 µM) was 1.12. The relative viability ([10]; first compound 2.53 µM) was 1.06, the relative viability ([10]; first compound 8 µM) was 1.11 and the relative viability ([11]; first compound 0.253 µM) was 1.03. It also gave a relative viability ([11]; first compound 0.8 µM) of 0.927, a relative viability ([11]; first compound 2.53 µM) of 1.08 and a relative viability ([11]; first compound 8 µM) of 1.04. The relative viability ([12]; first compound 0.253 µM) was 1.02, the relative viability ([12]; first compound 0.8 µM) was 0.98 and the relative viability ([12]; first compound 2.53 µM) was 1.13. For the same compound, the relative viability ([12]; first compound 8 µM) was 0.968, the relative viability ([13]; first compound 0.253 µM) was 0.991 and the relative viability ([13]; first compound 0.8 µM) was 1.12. For the same compound, the relative viability ([13]; first compound 2.53 µM) was 1.01, the relative viability ([13]; first compound 8 µM) was 0.906 and the relative viability ([14]; first compound 0.253 µM) was 0.974. It also gave a relative viability ([14]; first compound 0.8 µM) of 1.15, a relative viability ([14]; first compound 2.53 µM) of 1.12 and a relative viability ([14]; first compound 8 µM) of 0.96. For the same compound, the relative viability ([15]; first compound 0.253 µM) was 0.992, the relative viability ([15]; first compound 0.8 µM) was 0.91 and the relative viability ([15]; first compound 2.53 µM) was 1.18. For the same compound, the relative viability ([15]; first compound 8 µM) was 0.906, the relative viability ([16]; first compound 0.253 µM) was 1.02 and the relative viability ([16]; first compound 0.8 µM) was 1.04. For the same compound, the relative viability ([16]; first compound 2.53 µM) was 0.996, the relative viability ([16]; first compound 8 µM) was 0.998 and the relative viability ([17]; first compound 0.253 µM) was 0.772. The relative viability ([17]; first compound 0.8 µM) was 0.866, the relative viability ([17]; first compound 2.53 µM) was 0.792 and the relative viability ([17]; first compound 8 µM) was 0.791. For the same compound, the relative viability ([18]; first compound 0.253 µM) was 0.837, the relative viability ([18]; first compound 0.8 µM) was 0.926 and the relative viability ([18]; first compound 2.53 µM) was 0.862. It also gave a relative viability ([18]; first compound 8 µM) of 0.833, a relative viability ([19]; first compound 0.253 µM) of 0.692 and a relative viability ([19]; first compound 0.8 µM) of 0.681. The relative viability ([19]; first compound 2.53 µM) was 0.702, the relative viability ([19]; first compound 8 µM) was 0.486 and the relative viability ([20]; first compound 0.253 µM) was 0.861. The relative viability ([20]; first compound 0.8 µM) was 0.93, the relative viability ([20]; first compound 2.53 µM) was 1.19 and the relative viability ([20]; first compound 8 µM) was 0.792. For the same compound, the relative viability ([21]; first compound 0.253 µM) was 0.996, the relative viability ([21]; first compound 0.8 µM) was 0.957 and the relative viability ([21]; first compound 2.53 µM) was 1.06. It also gave a relative viability ([21]; first compound 8 µM) of 0.871, a relative viability ([22]; first compound 0.253 µM) of 0.816 and a relative viability ([22]; first compound 0.8 µM) of 1.05. For the same compound, the relative viability ([22]; first compound 2.53 µM) was 0.9, the relative viability ([22]; first compound 8 µM) was 0.675 and the relative viability ([23]; first compound 0.253 µM) was 0.452. It also gave a relative viability ([23]; first compound 0.8 µM) of 0.493, a relative viability ([23]; first compound 2.53 µM) of 0.688 and a relative viability ([23]; first compound 8 µM) of 0.45.
